Data as given in PMC5285354, “Cationic Net Charge and Counter Ion Type as Antimicrobial Activity Determinant Factors of Short Lipopeptides” (Frontiers in Microbiology, 2017).
Where a SMILES comes first, the peptide text is derived from it. The star is where a group is joined. Palmitoyl = CCCCCCCCCCCCCCCC(=O)*

How the values were obtained:
Assay type in all cases: cell-based
[1] = system: Escherichia coli (ATCC 25922)
Outline: (§1)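 Broth microdilution per CLSI: Mueller-Hinton broth, 10^5 cfu/mL inoculum, 18 h at 37°C for bacteria; Sabouraud dextrose broth, 10^3 cfu/mL, 48 h at 25°C for fungi. MIC (μg/mL) is the lowest lipopeptide concentration inhibiting visible growth; MBC/MFC also determined. Triplicate on three days.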

[2] = system: Klebsiella pneumoniae (ATCC 700603)
Outline: as §1

[3] = system: Bacillus subtilis (ATCC 6633)
Outline: as §1

[4] = system: Staphylococcus aureus (ATCC 25923)
Outline: as §1

[5] = system: Candida tropicalis (PCM 2681); details: PCM 2681, 48 h
Outline: as §1

[6] = system: Pseudomonas aeruginosa (ATCC 9027); details: ATCC 9027, 18 h
Outline: as §1

[7] = system: Candida albicans (ATCC 10231); details: ATCC 10231, 48 h
Outline: as §1

[8] = system: Aspergillus brasiliensis (ATCC 16404); details: ATCC 16404, 48 h
Outline: as §1

[9] = system: Proteus vulgaris (PCM 2668); details: 18 h
Outline: as §1

[10] = system: Enterococcus faecalis (ATCC 29212)
Outline: as §1

[11] = system: Staphylococcus epidermidis (PCM 2118)
Outline: as §1

human red blood cells = details: 1 h
Outline: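 Washed donor erythrocytes (4% v/v in PBS, EDTA-anticoagulated) incubated with graded lipopeptide concentrations for 1 h at 37 °C; hemoglobin release read at 550 nm in supernatants. Scaled between 0.1% Triton X-100 (100%) and PBS (0%); MHC is the lowest concentration giving 10% hemolysis.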

[12] = system: Pseudomonas aeruginosa (ATCC 9027); details: ATCC 9027, 24 h
[13] = system: Candida albicans (ATCC 10231)
[14] = system: Proteus vulgaris (PCM 2668); details: 24 h

CCCCCCCCCCCCCCCC(=O)N[C@@H](CCCCN)C(=O)NCC(N)=O [C16-KG-NH2] (Palmitoyl-Lys-Gly-NH2)
16 µg/mL: MIC Enterococcus fecalis ([10]; ATCC 29212, 18 h) | MBC Enterococcus fecalis ([10]; ATCC 29212, 24 h)
256 µg/mL: MBC Escherichia coli, lipopeptides without TFA counter ion ([1]; ATCC 25922, 18 h) | MIC Escherichia coli ([1]; ATCC 25922, 18 h) | MIC Escherichia coli, lipopeptides without TFA counter ion ([1]; ATCC 25922, 18 h) | MBC Escherichia coli ([1]; ATCC 25922, 24 h) | MBC Klebsiella pneumoniae, lipopeptides without TFA counter ion ([2]; ATCC 700603, 18 h) | MBC Klebsiella pneumoniae ([2]; ATCC 700603, 24 h) | MIC Candida tropicalis [5] | MIC Pseudomonas aeruginosa [6] | Hemolysis HC10 (MHC), concentration of lipopeptide inducing 10% of hemolysis (human red blood cells)
4 µg/mL: MIC Bacillus subtillis ([3]; ATCC 6633, 18 h) | MBC Bacillus subtillis ([3]; ATCC 6633, 24 h) | MBC Staphylococcus aureus, lipopeptides without TFA counter ion ([4]; ATCC 25923, 18 h) | MIC Staphylococcus aureus, lipopeptides without TFA counter ion ([4]; ATCC 25923, 18 h) | MIC Enterococcus fecalis, lipopeptides without TFA counter ion ([10]; ATCC 29212, 18 h) | MIC Staphylococcus epidermidis ([11]; PCM 2118, 18 h) | MBC Staphylococcus epidermidis ([11]; PCM 2118, 24 h)
1000 µg/mL: MBC Pseudomonas aeruginosa [12]
128 µg/mL: MIC Klebsiella pneumoniae ([2]; ATCC 700603, 18 h) | MIC Klebsiella pneumoniae, lipopeptides without TFA counter ion ([2]; ATCC 700603, 18 h) | MFC Candida albicans [7] | MIC Candida albicans [7] | MIC Candida albicans, lipopeptides without TFA counter ion [7] | MFC Candida albicans, lipopeptides without TFA counter ion [13]
>512 µg/mL: MIC Proteus vulgaris [9] | MBC Proteus vulgaris [14]
512 µg/mL: MFC Candida tropicalis [5] | MFC Aspergillus brasiliensis [8] | MIC Aspergillus brasiliensis [8]
8 µg/mL: MIC Staphylococcus aureus ([4]; ATCC 25923, 18 h) | MBC Staphylococcus aureus ([4]; ATCC 25923, 24 h) | MBC Enterococcus fecalis, lipopeptides without TFA counter ion ([10]; ATCC 29212, 18 h)
